Measurements published in patent US8058306B2, “Phenyl pyrrole aminoguanidine derivatives” (Action Pharma A/S, priority 2006, dated 2011).

Columns and labels:
human MC3 receptor = molecular target: T1, human MC3 receptor (Homo sapiens, UniProt P41968); assay: [125I]-NDP-MSH radio-ligand binding, MC3 (h) receptor (recombinant CHO cells); settings: 60 min/37° C.
T1 construct: expressed in transfected cells; host or cells: CHO cells
Method: (§1) Determination of binding affinities for MC receptors was performed by [^125I]-[Nle4,D-Phe7]α-MSH ([^125I]-NDP-MSH) radio-ligand binding. In short, murine B16-F1 melanoma cells expressing MC1, but not other MC receptors, were used for binding affinity studies against the murine MC1 receptor (Siegrist et al.; 1988, J. Recept. Res., 8(1-4):323-43). For human MC3, MC4 and MC5 receptor affinities human recombinant CHO cells were used (Schioth et al. 1997, Neuropeptides 31:565-71, 1997). Cells were suspended in HEPES buffer and by use of microwell plates radio-ligands, as well as test compound, in the concentration range of 10^−10 to 10^−6 were added. After incubation at 37° C. (22° C. for the MC1 receptor assay) separation of bound and free [^125I]-NDP-MSH was done by multiple washings with buffer.
(§2) The results were expressed as a percent of control specific binding obtained in the presence of the test compounds. The IC50 values (concentration causing a half-maximal inhibition of control specific binding) and Hill coefficients (nH) were determined by non-linear regression analysis of the competition curves using Hill equation curve fitting. The inhibition constants (Ki) were calculated from the Cheng Prusoff equation (Ki=IC50/(1+(L/KD)), where L=concentration of radio-ligand in the assay, and KD=affinity of the radio-ligand for the receptor).

human MC5 receptor = molecular target: T2, human MC5 receptor (Homo sapiens, UniProt P33032); assay: [125I]-NDP-MSH radio-ligand binding, MC5 (h) receptor (recombinant CHO cells); settings: 60 min/37° C.
T2 construct: expressed in transfected cells; host or cells: CHO cells
T2 sequence (P33032 whole entry): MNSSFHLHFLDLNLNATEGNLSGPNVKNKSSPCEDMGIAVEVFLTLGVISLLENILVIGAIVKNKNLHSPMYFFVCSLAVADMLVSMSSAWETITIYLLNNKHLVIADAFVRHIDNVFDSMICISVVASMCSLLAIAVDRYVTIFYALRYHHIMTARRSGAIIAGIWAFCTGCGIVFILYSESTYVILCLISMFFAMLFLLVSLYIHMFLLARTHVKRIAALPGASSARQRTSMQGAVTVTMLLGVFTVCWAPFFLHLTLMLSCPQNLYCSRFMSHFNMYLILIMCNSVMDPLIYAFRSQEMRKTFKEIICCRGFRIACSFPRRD
Method: as §1, §2

murine MC1 receptor = molecular target: T3, murine MC1 receptor (Mus musculus, UniProt Q01727); assay: [125I]-NDP-MSH radio-ligand binding, MC1 receptor (B16-F1 melanoma cells); settings: 90 min/22° C.
T3 construct: murine B16-F1 melanoma cells expressing MC1, but not other MC receptors, were used; endogenous in cells; host or cells: murine B16-F1 melanoma cells
T3 sequence (Q01727 whole entry): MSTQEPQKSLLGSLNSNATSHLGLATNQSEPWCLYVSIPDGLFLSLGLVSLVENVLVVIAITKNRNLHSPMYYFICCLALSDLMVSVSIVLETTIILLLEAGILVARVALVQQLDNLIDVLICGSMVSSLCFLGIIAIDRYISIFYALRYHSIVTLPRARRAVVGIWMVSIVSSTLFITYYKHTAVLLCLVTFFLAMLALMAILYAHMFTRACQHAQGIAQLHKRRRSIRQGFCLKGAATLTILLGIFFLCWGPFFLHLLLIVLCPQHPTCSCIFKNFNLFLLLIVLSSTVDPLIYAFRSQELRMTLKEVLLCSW
Method: as §1, §2

human MC4 receptor = molecular target: T4, human MC4 receptor (Homo sapiens, UniProt P32245); assay: [125I]-NDP-MSH radio-ligand binding, MC4 (h) receptor (recombinant CHO cells); settings: 120 min/37° C.
T4 construct: expressed in transfected cells; host or cells: CHO cells
T4 sequence (P32245 whole entry): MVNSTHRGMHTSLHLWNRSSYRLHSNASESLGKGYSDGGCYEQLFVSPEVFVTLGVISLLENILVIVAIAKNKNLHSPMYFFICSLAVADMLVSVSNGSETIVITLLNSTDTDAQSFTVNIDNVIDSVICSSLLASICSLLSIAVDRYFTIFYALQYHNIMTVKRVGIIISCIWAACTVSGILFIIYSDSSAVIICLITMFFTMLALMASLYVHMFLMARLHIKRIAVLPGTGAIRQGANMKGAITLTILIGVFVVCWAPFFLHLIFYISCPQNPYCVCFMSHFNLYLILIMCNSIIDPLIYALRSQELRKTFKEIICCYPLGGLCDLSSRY
Method: as §1, §2

Measured: Ki

T1 sequence (P41968 whole entry): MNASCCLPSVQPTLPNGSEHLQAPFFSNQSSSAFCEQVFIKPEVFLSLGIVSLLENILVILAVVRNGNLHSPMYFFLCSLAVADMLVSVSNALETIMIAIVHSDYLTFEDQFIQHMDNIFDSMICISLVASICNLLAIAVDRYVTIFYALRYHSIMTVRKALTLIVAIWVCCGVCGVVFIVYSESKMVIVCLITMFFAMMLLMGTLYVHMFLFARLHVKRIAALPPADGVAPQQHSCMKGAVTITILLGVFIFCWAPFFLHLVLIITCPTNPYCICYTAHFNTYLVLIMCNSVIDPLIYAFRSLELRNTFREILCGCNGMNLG

N=C(N)NN=Cc1cccn1-c1ccc(Cl)cc1 [Reference-compound 1, [1-[4-chlorophenyl)-1H-pyrrol-2-yl-methyleneamino]guanidinium acetate, reference compound]
> 1000 nM: all assays above

N=C(N)NN=Cc1cccn1-c1ccccc1[N+](=O)[O-] [Reference-compound 2, [1-[2-nitrophenyl)-1H-pyrrol-2-yl-methyleneamino]guanidinium acetate, reference compound]
> 1000 nM: all assays above
